pEC50, pIC50, pKi: −log10 of the molar value.
Assays:
D(1B) dopamine receptor = D(1B) dopamine receptor (Homo sapiens, UniProt P21918); test: biochemical
Description: Displacement of [3H]SCH23390 from human D5R expressed in HEK293T cell membranes by radioligand binding assay

HEK293 = test: Cytotoxicity against HEK293 cells; assay type: cell-based; settings: human
D(2) dopamine receptor [1] = molecular target: T1, D(2) dopamine receptor (Homo sapiens, UniProt P14416); test: biochemical; assay type: cell-based
Description: Displacement of [3H]spiperone from human D2LR expressed in CHO cell membranes by radioligand binding assay

D(2) dopamine receptor [2] = molecular target: T1, D(2) dopamine receptor; test: biochemical; assay type: cell-based; remark: listed apart in the source
Description: Displacement of [3H]spiperone from human D2SR expressed in CHO cell membranes by radioligand binding assay

[3] = molecular target: 5-hydroxytryptamine receptor 2A (Homo sapiens, UniProt P28223); test: biochemical
Chain of 5-hydroxytryptamine receptor 2A (P28223 whole entry): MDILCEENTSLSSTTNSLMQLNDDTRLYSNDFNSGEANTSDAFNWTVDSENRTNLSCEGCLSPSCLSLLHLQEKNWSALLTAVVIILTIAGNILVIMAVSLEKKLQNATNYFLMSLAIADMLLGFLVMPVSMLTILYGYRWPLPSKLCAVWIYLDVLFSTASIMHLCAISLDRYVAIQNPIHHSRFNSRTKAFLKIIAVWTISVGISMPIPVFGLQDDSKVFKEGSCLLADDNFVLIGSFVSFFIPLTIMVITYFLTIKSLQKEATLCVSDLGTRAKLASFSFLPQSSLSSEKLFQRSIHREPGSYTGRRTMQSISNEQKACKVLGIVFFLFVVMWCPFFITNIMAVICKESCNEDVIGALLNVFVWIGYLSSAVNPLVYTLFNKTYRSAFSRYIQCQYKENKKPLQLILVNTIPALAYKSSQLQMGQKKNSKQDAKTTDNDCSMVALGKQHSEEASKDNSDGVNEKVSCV
Description: Displacement of [3H]ketanserin from human 5-HT2AR expressed in HEK293T cell membranes by radioligand binding assay

D(4) dopamine receptor = molecular target: T2, D(4) dopamine receptor (Homo sapiens, UniProt P21917); test: biochemical; assay type: cell-based
T2 sequence (P21917 whole entry): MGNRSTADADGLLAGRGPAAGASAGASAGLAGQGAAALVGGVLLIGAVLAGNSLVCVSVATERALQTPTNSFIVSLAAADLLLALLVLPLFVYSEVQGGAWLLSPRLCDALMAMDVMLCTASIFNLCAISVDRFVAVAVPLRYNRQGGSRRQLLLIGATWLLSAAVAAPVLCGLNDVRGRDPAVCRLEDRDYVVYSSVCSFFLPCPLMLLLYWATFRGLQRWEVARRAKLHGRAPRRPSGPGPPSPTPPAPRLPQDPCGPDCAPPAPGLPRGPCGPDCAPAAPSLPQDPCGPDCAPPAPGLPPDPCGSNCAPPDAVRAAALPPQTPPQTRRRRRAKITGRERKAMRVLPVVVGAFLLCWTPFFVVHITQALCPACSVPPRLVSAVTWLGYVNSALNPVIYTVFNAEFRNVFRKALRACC
Description: Displacement of [3H]spiperone from human D4R expressed in CHO cell membranes by radioligand binding assay

D(1A) dopamine receptor = D(1A) dopamine receptor (Homo sapiens, UniProt P21728); test: biochemical
Chain of D(1A) dopamine receptor (P21728 whole entry): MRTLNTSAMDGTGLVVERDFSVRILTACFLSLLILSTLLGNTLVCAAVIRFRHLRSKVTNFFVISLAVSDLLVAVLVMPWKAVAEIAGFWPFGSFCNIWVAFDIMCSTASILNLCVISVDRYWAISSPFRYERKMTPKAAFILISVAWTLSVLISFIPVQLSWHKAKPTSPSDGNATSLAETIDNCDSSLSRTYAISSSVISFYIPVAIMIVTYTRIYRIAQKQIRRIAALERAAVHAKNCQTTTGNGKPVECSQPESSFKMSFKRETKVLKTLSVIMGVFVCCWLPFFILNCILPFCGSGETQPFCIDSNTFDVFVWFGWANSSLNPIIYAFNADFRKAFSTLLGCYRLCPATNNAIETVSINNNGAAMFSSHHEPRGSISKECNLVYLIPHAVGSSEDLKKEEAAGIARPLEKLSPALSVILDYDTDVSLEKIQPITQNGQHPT
Description: Displacement of [3H]SCH23390 from human D1R expressed in HEK293T cell membranes by radioligand binding assay

D(2) dopamine receptor [4] = molecular target: T1, D(2) dopamine receptor; assay type: cell-based, HEK-293T
Description: Partial agonist activity at human D2SR expressed in HEK293T cells co-expressing (EA)beta-arrestin2 assessed as induction of beta-arrestin2 recruitment after 5 hrs by chemiluminescence assay

D(2) dopamine receptor [5] = molecular target: T1, D(2) dopamine receptor; assay type: cell-based, HEK-293T; remark: listed apart in the source
Description: Partial agonist activity at human D2SR expressed in HEK293T cells co-expressing (EA)beta-arrestin2 and GRK2 assessed as induction of beta-arrestin2 recruitment after 5 hrs by chemiluminescence assay

D(2) dopamine receptor [6] = molecular target: T1, D(2) dopamine receptor; assay type: functional, cell-based, HEK-293T
Description: Agonist activity at human D2S receptor expressed in HEK293T cell membranes coexpressing Galphao1 assessed as induction of nucleotide exchange preincubated for 30 mins followed by addition of [35S]GTPgammaS measured after 30 mins by [35S]GTPgammaS binding assay

D(2) dopamine receptor [7] = molecular target: T1, D(2) dopamine receptor; settings: HEK-293T, at 1e-07 to 100 µM
Description: Agonist activity at human D2S receptor expressed in HEK293T cell membranes coexpressing Galphao1 assessed as induction of nucleotide exchange at 0.1 pM to 100 uM preincubated for 30 mins followed by addition of [35S]GTPgammaS measured after 30 mins by [35S]GTPgammaS binding assay relative to quinpirole

[8] = Half life in Sprague-Dawley rat liver microsomes at 20 uM by HPLC analysis; assay type: ADME, microsome
Liver = test: Metabolic stability in Sprague-Dawley rat liver microsomes at 20 uM measured after 15 mins by HPLC-based mass-spectrometry; assay type: ADME, microsome; settings: 0.25 h
[9] = Binding affinity to microsomal protein in Sprague-Dawley rat liver microsomes after 60 mins in absence of NADPH by HPLC analysis; assay type: ADME; settings: 1 h
[10] = Intrinsic clearance in Sprague-Dawley rat liver microsomes assessed per mg protein at 20 uM by HPLC analysis; assay type: ADME, microsome; settings: read-out: CLH
D(2) dopamine receptor [11] = molecular target: T1, D(2) dopamine receptor; test: Agonist activity at human D2S receptor expressed in HEK293T cell membranes coexpressing Galphao1 assessed as induction of nucleotide exchange at 30 uM preincubated for 30 mins followed by addition of [35S]GTPgammaS measured after 30 mins by [35S]GTPgammaS binding assay relative to quinpirole; assay type: functional; settings: HEK-293T
hERG (KCNH2) [12] = molecular target: T3, hERG (KCNH2) (Homo sapiens, UniProt Q12809); test: Inhibition of human ERG expressed in CHO cells assessed as tail current remaining at 50 uM and -40 holding potential by automated patch-clamp assay; assay type: cell-based; settings: CHO cells expressing human ERG, read-out: Activity
T3 sequence (Q12809 whole entry): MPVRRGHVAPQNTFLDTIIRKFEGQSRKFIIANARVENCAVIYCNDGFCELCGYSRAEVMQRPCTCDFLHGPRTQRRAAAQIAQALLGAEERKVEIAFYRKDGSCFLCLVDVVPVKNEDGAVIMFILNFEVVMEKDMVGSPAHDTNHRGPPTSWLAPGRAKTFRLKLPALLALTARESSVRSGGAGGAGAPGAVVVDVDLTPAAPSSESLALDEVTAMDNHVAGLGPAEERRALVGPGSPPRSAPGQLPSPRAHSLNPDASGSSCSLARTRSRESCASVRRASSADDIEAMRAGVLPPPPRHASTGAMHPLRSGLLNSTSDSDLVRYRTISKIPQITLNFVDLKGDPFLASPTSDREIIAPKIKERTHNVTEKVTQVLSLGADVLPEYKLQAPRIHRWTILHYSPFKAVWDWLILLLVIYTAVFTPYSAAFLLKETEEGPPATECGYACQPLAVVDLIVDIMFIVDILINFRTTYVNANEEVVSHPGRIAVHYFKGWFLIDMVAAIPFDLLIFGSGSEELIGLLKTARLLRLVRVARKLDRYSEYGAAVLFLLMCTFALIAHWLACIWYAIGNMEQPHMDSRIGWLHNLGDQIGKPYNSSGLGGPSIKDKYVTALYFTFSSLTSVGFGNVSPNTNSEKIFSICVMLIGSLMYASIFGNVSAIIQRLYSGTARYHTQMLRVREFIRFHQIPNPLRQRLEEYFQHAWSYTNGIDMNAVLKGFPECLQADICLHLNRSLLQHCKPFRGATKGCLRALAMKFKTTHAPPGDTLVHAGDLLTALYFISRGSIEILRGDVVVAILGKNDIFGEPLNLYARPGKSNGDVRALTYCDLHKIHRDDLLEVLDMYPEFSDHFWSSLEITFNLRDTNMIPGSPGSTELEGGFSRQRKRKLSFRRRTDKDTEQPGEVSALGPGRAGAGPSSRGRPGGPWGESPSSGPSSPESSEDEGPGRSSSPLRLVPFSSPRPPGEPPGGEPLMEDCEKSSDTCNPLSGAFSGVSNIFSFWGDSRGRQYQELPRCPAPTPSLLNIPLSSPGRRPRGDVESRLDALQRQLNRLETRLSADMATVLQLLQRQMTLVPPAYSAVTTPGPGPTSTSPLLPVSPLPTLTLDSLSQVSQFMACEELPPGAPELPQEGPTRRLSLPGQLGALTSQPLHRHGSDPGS

hERG (KCNH2) [13] = molecular target: T3, hERG (KCNH2); test: Inhibition of human ERG expressed in CHO cells assessed as tail current remaining at 10 uM and -40 holding potential by automated patch-clamp assay; assay type: cell-based; settings: CHO cells expressing human ERG, read-out: Activity
[14] = Binding affinity to microsomal protein in Sprague-Dawley rat liver microsomes after 60 mins in presence of NADPH by HPLC analysis; assay type: ADME; settings: read-out: PB (converted)
[15] = molecular target: T4, Voltage-gated inwardly rectifying potassium channel KCNH2 (Homo sapiens, UniProt Q12809); test: Inhibition of human ERG expressed in CHO cells assessed as reduction in tail current at -40 holding potential by automated patch-clamp assay; assay type: cell-based
T4 sequence (Q12809 whole entry): as above

[16] = molecular target: T4, Voltage-gated inwardly rectifying potassium channel KCNH2; test: Inhibition of human ERG expressed in CHO cells assessed as reduction in tail current at 1 uM and -40 holding potential by automated patch-clamp assay; assay type: cell-based

T1 sequence (P14416 whole entry): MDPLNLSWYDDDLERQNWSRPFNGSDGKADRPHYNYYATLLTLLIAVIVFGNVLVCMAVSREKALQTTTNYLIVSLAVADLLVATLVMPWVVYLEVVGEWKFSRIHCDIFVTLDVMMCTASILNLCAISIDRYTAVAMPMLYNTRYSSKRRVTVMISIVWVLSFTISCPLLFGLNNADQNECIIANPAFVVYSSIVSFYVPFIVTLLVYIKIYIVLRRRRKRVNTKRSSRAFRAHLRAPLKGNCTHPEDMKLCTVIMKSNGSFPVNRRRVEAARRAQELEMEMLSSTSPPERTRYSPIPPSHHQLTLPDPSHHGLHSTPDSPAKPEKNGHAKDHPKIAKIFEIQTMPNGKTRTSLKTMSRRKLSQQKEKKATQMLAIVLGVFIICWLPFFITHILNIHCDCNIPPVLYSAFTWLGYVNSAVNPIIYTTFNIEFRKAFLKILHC
Chain of D(1B) dopamine receptor (P21918 whole entry): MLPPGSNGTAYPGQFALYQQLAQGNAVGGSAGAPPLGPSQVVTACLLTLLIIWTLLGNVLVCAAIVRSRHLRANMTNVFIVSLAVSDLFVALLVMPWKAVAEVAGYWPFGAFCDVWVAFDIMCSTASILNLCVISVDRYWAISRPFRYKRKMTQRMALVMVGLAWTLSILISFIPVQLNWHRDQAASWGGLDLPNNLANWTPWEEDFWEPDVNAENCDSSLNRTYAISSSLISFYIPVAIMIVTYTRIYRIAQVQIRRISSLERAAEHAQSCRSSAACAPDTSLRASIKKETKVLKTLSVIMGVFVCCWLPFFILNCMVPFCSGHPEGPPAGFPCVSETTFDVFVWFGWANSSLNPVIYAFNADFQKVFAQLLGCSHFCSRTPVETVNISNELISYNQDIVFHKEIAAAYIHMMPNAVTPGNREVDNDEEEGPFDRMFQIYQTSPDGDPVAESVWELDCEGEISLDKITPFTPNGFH

| SMILES | pKi (D(1B) dopamine receptor) | Activity (HEK293) | pKi (D(2) dopamine receptor [1]) | pKi (D(2) dopamine receptor [2]) | pKi [3] | pKi (D(4) dopamine receptor) | pKi (D(1A) dopamine receptor) | pEC50 (D(2) dopamine receptor [4]) | pEC50 (D(2) dopamine receptor [5]) | pEC50 (D(2) dopamine receptor [6]) | Emax (D(2) dopamine receptor [7]) [%] | further results |
| --- | --- | --- | --- | --- | --- | --- | --- | --- | --- | --- | --- | --- |
| O=C1CCc2ccc(OCCCCN3CCN(c4ccc(O)c5oc(=O)ccc45)CC3)cc2N1 | < 4.70 | Non-Toxic | 8.32 | 8.70 | < 4.70 | 6.06 | < 4.70 |  |  |  |  |  |
| Oc1ccc(N2CCN(CCCCOc3ccn4nccc4c3)CC2)c2cccnc12 | 5.24 | Non-Toxic | 7.48 | 7.60 | 6.70 | 7.26 | 5.96 |  |  |  |  |  |
| CCCCn1cc(CCCOc2ccc(C(=O)NCCCN3CCCN(c4ccc(O)c5[nH]c(=O)ccc45)CC3)cc2OC)nn1 | < 4.70 | Non-Toxic | 6.46 | 6.36 | 5.38 | 5.49 | 4.77 | 6.17 |  |  |  |  |
| O=C1COc2c(N3CCN(CCCCOc4ccn5nccc5c4)CC3)ccc(O)c2N1 | 4.80 | Non-Toxic | 8.70 | 9.07 | 5.89 | 8.32 | 5.64 | 7.21 |  |  |  |  |
| CCCN(CCC)CCc1cccc2c1CC(=O)N2 [ROPINIROLE] |  |  |  |  |  |  |  | 7.05 | 7.52 | 6.48 | 92 |  |
| O=C1CCc2ccc(OCCCCN3CCN(c4ccc(O)c5c4OCC(=O)N5)CC3)cc2N1 | 5.38 | Non-Toxic | 9.06 | 9.17 | 6.37 | 8.08 | 4.92 | 7.04 |  |  |  |  |
| CCCN[C@H]1CCc2nc(N)sc2C1 |  |  |  |  |  |  |  |  |  |  | 102 |  |
| O=C1CCc2ccc(OCCCCN3CCN(c4ccc(O)c5ncccc45)CC3)cc2N1 | 5.47 | Non-Toxic | 8.47 | 8.82 | 7.41 | 7.03 | 5.82 |  |  |  |  |  |
| O=c1ccc2c(N3CCCN(CCCCOc4ccn5nccc5c4)CC3)ccc(O)c2[nH]1 | < 4.70 | Non-Toxic | 7.11 | 7.34 | 5.05 | 6.72 | 4.89 | 6.43 | 6.60 | 7.05 | 56 | half-life at 20 µM [8]: 51 min; Stability (Liver): Unstable; PB [9]: Not Active; microsomal CLint at 20 µM [10]: 27 µL/min/mg |
| O=c1ccc2c(N3CCN(CCCCOc4ccn5nccc5c4)CC3)ccc(O)c2o1 | < 4.70 | Non-Toxic | 7.40 | 7.72 | 5.55 | 6.57 | < 4.70 |  |  |  |  |  |
| O=c1ccc2c(N3CCN(CCCCOc4ccn5nccc5c4)CC3)ccc(O)c2[nH]1 | 4.89 | Non-Toxic |  |  | 5.44 | 7.51 | 5.33 |  |  |  |  |  |
| O=C1CCc2ccc(OCCCCN3CCN(c4ccc(O)c5c4OCCO5)CC3)cc2N1 | 4.80 | Non-Toxic | 8.54 | 8.66 | 6.80 | 6.52 | 5.35 |  |  |  |  |  |
| Oc1ccc(N2CCN(CCCCOc3ccn4nccc4c3)CC2)c2c1OCCO2 | 4.72 | Non-Toxic | 6.96 | 7.17 | 6.32 | 6.80 | 5.28 |  |  |  |  |  |
| O=C1CCc2ccc(OCCCCN3CCCN(c4ccc(O)c5oc(=O)ccc45)CC3)cc2N1 | < 4.70 | Non-Toxic | 7.00 | 7.43 | 5.64 | 5.30 | < 4.70 | 6.66 | 6.89 | < 5.30 |  | Emax (D(2) dopamine receptor [11]): 36% |
| O=C1CCc2ccc(OCCCCN3CCCN(c4ccc(O)c5[nH]c(=O)ccc45)CC3)cc2N1 | < 4.70 | Non-Toxic | 8.80 | 9.09 | 5.47 | 7.12 | 4.96 | 6.72 | 6.70 | 7.17 | 55 | activity at 50 µM (hERG (KCNH2) [12]): 21.5%; half-life at 20 µM [8]: 130 min; activity at 10 µM (hERG (KCNH2) [13]): 71.7%; PB [9]: Not Active; fraction unbound at 1 h [14]: 0.73; microsomal CLint at 20 µM [10]: 11 µL/min/mg; pIC50 [15]: 4.71; inhibition (INH) ([15]; human): Dose-dependent effect; inhibition (INH) [16]: Not Active |
| CCCCn1cc(CCCOc2ccc(C(=O)NCCCCN3CCCN(c4ccc(O)c5[nH]c(=O)ccc45)CC3)cc2OC)nn1 | < 4.70 | Non-Toxic | 6.70 | 6.66 | 5.82 | 5.68 | 5.40 | 5.80 |  |  |  |  |
| O=C1CCc2ccc(OCCCCN3CCCN(c4ccc(O)c5c4OCC(=O)N5)CC3)cc2N1 | 4.82 | Non-Toxic | 8.80 | 8.80 | 5.70 | 7.22 | 5.57 | 6.33 | 6.20 | 7.11 | 26 |  |
| O=C1CCc2ccc(OCCCCN3CCN(c4ccc(O)c5[nH]c(=O)ccc45)CC3)cc2N1 | 5.03 | Non-Toxic | 9.05 | 9.00 | 5.66 | 7.18 | 5.27 | 7.03 |  |  |  |  |
| CCCN(CCc1cccs1)[C@H]1CCc2c(O)cccc2C1 [ROTIGOTINE] |  |  |  |  |  |  |  | 8.39 | 8.36 | 8.49 | 91 | half-life at 20 µM [8]: 5.8 min; Stability (Liver): Unstable; microsomal CLint at 20 µM [10]: 240 µL/min/mg |
